These results are taken from article doi:10.1101/2025.02.26.640120v1 (biorxiv, 2025).

Data set [1] can be described thus: in vitro. Particulars: mouse, att-20 cells.
The nature of data set [2]: in vitro. The following applies: mouse, att-20 cells, AtT-20 cell viability at 25µM, % of control. More on the design: species or system AtT-20.
Another data set concerns AtT-20. Nature of the data set: in vitro. Particulars: Ambinter Amb2704313 batch; 24 h.
A further data set concerns the target T1, full length USP8 (Homo sapiens, UniProt P40818).
T1 sequence (P40818 1-1118): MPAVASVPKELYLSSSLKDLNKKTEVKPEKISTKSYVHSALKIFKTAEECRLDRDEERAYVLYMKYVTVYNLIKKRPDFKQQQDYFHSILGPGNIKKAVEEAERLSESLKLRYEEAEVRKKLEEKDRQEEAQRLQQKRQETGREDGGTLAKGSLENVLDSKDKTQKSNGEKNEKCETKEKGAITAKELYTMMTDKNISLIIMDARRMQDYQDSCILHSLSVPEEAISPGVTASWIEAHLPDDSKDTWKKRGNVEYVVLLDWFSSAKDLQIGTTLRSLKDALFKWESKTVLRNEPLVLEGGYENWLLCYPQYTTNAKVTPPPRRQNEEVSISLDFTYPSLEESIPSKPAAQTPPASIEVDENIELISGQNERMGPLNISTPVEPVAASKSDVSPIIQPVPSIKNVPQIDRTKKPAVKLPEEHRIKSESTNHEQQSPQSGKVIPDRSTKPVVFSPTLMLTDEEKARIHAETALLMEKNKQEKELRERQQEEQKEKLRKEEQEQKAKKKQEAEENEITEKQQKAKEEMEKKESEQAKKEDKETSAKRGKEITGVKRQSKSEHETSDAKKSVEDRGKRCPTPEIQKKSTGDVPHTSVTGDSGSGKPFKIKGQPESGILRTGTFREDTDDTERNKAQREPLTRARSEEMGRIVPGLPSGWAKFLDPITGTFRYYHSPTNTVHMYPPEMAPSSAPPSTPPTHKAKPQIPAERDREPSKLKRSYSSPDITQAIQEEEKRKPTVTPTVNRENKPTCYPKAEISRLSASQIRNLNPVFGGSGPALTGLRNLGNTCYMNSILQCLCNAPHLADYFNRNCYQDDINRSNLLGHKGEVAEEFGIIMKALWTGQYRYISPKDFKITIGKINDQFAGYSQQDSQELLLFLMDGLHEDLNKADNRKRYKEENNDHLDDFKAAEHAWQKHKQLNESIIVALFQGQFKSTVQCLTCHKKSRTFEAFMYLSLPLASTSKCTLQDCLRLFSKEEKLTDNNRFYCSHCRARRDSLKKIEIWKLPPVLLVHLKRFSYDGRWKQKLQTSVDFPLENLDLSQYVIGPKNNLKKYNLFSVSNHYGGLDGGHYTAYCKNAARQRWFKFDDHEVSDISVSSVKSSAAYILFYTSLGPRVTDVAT
Nature of the data set: Ub-Rho hydrolysis, dose response. Format: biochemical.

Data set [3] is described as follows: in vitro. The following applies: mouse, att-20 cells. This is another data set of the same source.

In general, viability refers to a read-out of living cells in per cent, often relative to untreated cells. The term pIC50 denotes the negative decadic logarithm of the IC50, by convention in mol/L.

pIC50: −log10 of the molar value. Read-outs that look alike come from different tables or passages of the source. Where only a bound is given, the exact number is not on record here.

Consider `CC(=O)Oc1c(I)cc(I)cc1C(=O)Nc1ccc(Cl)cc1` [Clioxanide], for which, in “in vitro [1]”, the viability at 24 h, 25 µM was 94.2%.

`O=C(Nc1ccc([N+](=O)[O-])cc1Cl)c1cc(Cl)ccc1O` [Niclosamide]: the viability at 24 h, 27 µM in the data set “in vitro [1]” came to 50%.

For the compound `O=C(Nc1cc(Cl)cc(Cl)c1O)c1c(O)c(Cl)cc(Cl)c1Cl` [Oxyclozanide], the viability at 24 h, 25 µM in the data set “in vitro [1]” was 98.1%.

As for `O=C(Nc1ccc(Oc2ccc(Cl)cc2)c(Cl)c1)c1cc(I)cc(I)c1O` [Rafoxanide], the viability at 24 h, 25 µM in the data set “in vitro [2]” amounted to 56.2%. Besides, the “AtT-20 cell viability at 25µM, % of control” value in the data set with AtT-20 is on record as 39.3%.

As to `O=C(Nc1ccc(Cl)cc1)c1cc(I)cc(I)c1O` [ZINC4014104], at full length USP8 (0.1 µM Ub-Rho), the pIC50 is 4.92. The viability at 24 h, 25 µM in the data set “in vitro [2]” was 58.8%.

For `O=C(Nc1cc(Cl)ccc1Cl)c1cc(I)cc(I)c1O` [ZINC4014105], in the data set “in vitro [2]”, the viability at 24 h, 25 µM was 95.7%.

`Cc1ccc(NC(=O)c2cc(I)cc(I)c2O)cc1` [ZINC4014108] had a pIC50 against full length USP8 (0.1 µM Ub-Rho) of 4.84. The viability at 24 h, 25 µM in the data set “in vitro [2]” is 93.5%.

As to `O=C(Nc1cc(Cl)cc(Cl)c1)c1cc(I)cc(I)c1O` [ZINC4014253], in the data set “in vitro [2]”, the viability at 24 h, 25 µM was 68%.

Take `O=C(Nc1ccc(Cl)cc1Cl)c1cc(I)cc(I)c1O` [ZINC4181894]: in “in vitro [2]”, the viability at 24 h, 25 µM is 89.6%.

In the case of `O=C(Nc1ccc(Cl)cc1C(=O)c1ccccc1F)c1ccc(=O)[nH]c1` [ZINC9579366], the viability at 24 h, 25 µM in the data set “in vitro [3]” came to 103%.

`O=C(CSc1ccccc1F)Nc1cccc(OCc2ccccn2)c1` [ZINC32922917]: the viability at 24 h, 25 µM in “in vitro [2]” was 101%.

Take `O=C(NCc1cccc(OCc2ccccn2)c1)c1csc(Br)c1` [ZINC40111866]: the viability at 24 h, 25 µM in “in vitro [2]” turned out to be 98.9%.

Regarding `Cc1ccc(NC(=O)Cn2ccccc2=O)c(OCc2ccccc2)c1` [ZINC55784788], the viability at 24 h, 25 µM in the data set “in vitro [3]” amounted to 96%.

In the case of `Cc1ccc(C(=O)c2cc(NC(=O)c3cc(I)cc(I)c3O)ccc2Cl)cc1` [ZINC72119086], the viability at 24 h, 25 µM in “in vitro [2]” came to 109%.

For `O=C(Nc1ccc(O)cc1)c1cc(I)ccc1O` [ZINC194061705], in “in vitro [3]”, the viability at 24 h, 25 µM was 107%.

For `O=C(Nc1ccccc1)c1ccccc1O` [salicylanilide backbone], the pIC50 at full length USP8 was less than 4.30.
